From patent US4598084A, “Optically active derivatives of N-arylated oxazolidine-2-one, the process for preparing same and their application in therapeutics” (Delalande S.A., priority 1982, dated 1986)
Where two headings read alike, the source gives them in different places.

What was measured:
[1] = target: T1, type B monoamine oxidase (MAO.B) (Rattus norvegicus, UniProt P19643); test: in vitro MAO.B inhibition on homogenized rat brain, phenylethylamine (PEA) substrate; format: biochemical, rats; conditions: Table 1, rat brain homogenate, read-out: MAO.B inhibition effect (P.E.A.) IC 50
T1 construct: the brains being removed, weighed, homogeneized; from tissue; host or cells: brain of orally dosed rats, homogenized
T1 sequence (P19643 1-520): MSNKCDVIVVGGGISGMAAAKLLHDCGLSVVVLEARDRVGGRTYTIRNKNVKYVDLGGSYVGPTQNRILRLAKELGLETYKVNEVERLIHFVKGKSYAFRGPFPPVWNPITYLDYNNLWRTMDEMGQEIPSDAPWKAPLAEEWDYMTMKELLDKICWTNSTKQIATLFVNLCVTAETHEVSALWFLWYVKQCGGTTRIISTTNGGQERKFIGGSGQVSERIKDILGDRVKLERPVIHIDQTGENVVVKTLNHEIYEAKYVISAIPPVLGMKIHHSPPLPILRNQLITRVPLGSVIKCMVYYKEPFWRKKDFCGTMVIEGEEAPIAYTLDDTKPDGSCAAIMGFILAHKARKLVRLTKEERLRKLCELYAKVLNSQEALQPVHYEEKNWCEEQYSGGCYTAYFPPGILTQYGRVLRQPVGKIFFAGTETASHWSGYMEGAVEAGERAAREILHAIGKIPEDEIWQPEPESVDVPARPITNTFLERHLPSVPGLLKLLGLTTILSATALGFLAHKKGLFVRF
Source text: (§1) in vitro, on the homogeneized brain of rats, by measuring the dose inhibiting by 50% (IC 50) the activity of monoamine oxidase (MAO) by taking phenylethylamine (PEA) as substrate of type B monoamine oxidase (MAO.B) and serotonine (5-HT) as substrate of type A monoamine oxidase (MAO.A), according to the procedure described by M. STROLIN BENEDETTI et al. in: Monoamine oxidase Basic and Clinical Frontiers, publishers K. KAMISO-E. USDIN-T. NAGATSO-Excepta Medica (1982)-page 209);

[2] = target: T2, type A monoamine oxidase (MAO.A) (Rattus norvegicus, UniProt P21396); test: in vitro MAO.A inhibition on homogenized rat brain, serotonine (5-HT) substrate; format: biochemical, rats; conditions: Table 1, rat brain homogenate, read-out: MAO.A inhibition effect (5-HT) IC 50
T2 construct: the brains being removed, weighed, homogeneized; from tissue; host or cells: brain of orally dosed rats, homogenized
T2 sequence (P21396 1-526): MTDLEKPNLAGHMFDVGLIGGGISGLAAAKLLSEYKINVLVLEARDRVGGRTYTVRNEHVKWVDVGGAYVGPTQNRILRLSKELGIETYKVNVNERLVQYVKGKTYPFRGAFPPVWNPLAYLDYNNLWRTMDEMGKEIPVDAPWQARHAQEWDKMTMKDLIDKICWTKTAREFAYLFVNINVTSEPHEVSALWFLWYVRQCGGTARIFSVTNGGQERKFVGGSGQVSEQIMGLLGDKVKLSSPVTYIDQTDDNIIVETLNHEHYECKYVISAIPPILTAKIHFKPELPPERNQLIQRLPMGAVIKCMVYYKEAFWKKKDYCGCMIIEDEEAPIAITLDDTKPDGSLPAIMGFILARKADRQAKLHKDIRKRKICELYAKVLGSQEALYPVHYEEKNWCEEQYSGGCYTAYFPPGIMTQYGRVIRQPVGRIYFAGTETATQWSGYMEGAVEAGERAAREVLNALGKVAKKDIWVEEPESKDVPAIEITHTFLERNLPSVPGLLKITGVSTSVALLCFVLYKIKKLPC
Source text: as §1

[3] = target: T1, type B monoamine oxidase (MAO.B); test: ex vivo brain MAO.B inhibition after single oral dose in rats, PEA substrate; conditions: for inhibition at 5 mg/kg / inhibition at 10 mg/kg / inhibition at 20 mg/kg: rat, po; for inhibition at 5 mg/kg: 5 mg/kg p.o.; for specificity and reversibility / level of activity: in words; for specificity and reversibility: compared with racemic; for level of activity: compared with racemic or dose; for inhibition at 10 mg/kg: 10 mg/kg p.o.; for inhibition at 20 mg/kg: 20 mg/kg p.o.
Procedure: (§2) ex vivo, on rats to which was administered orally a single dose of the compounds of formula (I) (or their pharmaceutically acceptable salts) or their corresponding racemic of formula (Io), in a 0.5% suspension in methylcellulose, the rats being sacrificed by being beheaded at varying times, the brains being removed, weighed, homogeneized and the determination of the MAOI activity being made by using serotonine and phenylethylamine, according to the procedure described by J. P. KAN and M. STROLIN-BENEDETTI in Life Sciences 26, 2165, (1980).

[4] = target: T2, type A monoamine oxidase (MAO.A); test: ex vivo brain MAO.A inhibition after single oral dose in rats, 5-HT substrate; conditions: for inhibition at 10 mg/kg: Table 3, 10 mg/kg p.o.; for inhibition at 20 mg/kg: Table 3, 20 mg/kg p.o.
Procedure: as §2

[5] = oral acute toxicity in mice (Miller and Tainter's method); format: in vivo; conditions: mouse, in vivo, mice, oral, read-out: Acute toxicity (mice) LD 50
Source text: (§3) The results obtained in the in vitro test are shown in table 1 below and the results obtained in the ex vivo test, as well as the oral acute toxicity in mice evaluated according to MILLER and TAINTER's method [Proc. Soc.

mice = test: as above; format: in vivo; conditions: in words
Source text: as §3

[6] = Table 3, rats, 30, unit inferred, read-out: % MAO inhibition effect after n hour(s), PEA
[7] = Table 3, rats, 1 hour, read-out: % MAO inhibition effect after n hour(s), PEA
[8] = Table 3, rats, 2 hours, read-out: % MAO inhibition effect after n hour(s), PEA
[9] = Table 3, rats, 4 hours, read-out: % MAO inhibition effect after n hour(s), PEA
[10] = Table 3, rats, 8 hours, read-out: % MAO inhibition effect after n hour(s), PEA
[11] = Table 3, rats, 24 hours, read-out: % MAO inhibition effect after n hour(s), PEA
[12] = Table 3, 5 mg/kg p.o., rats, 30, unit inferred, read-out: % MAO inhibition effect after n hour(s), 5-HT
[13] = Table 3, 5 mg/kg p.o., rats, 1 hour, read-out: % MAO inhibition effect after n hour(s), 5-HT
[14] = Table 3, 5 mg/kg p.o., rats, 2 hours, read-out: % MAO inhibition effect after n hour(s), 5-HT
[15] = Table 3, 5 mg/kg p.o., rats, 4 hours, read-out: % MAO inhibition effect after n hour(s), 5-HT
[16] = Table 3, 5 mg/kg p.o., rats, 8 hours, read-out: % MAO inhibition effect after n hour(s), 5-HT
[17] = Table 3, 5 mg/kg p.o., rats, 24 hours, read-out: % MAO inhibition effect after n hour(s), 5-HT
[18] = Table 2, rats, 1 hour, read-out: % MAO inhibition effect after n hour(s), PEA (IMAO.B)
[19] = Table 2, rats, 2 hours, read-out: % MAO inhibition effect after n hour(s), PEA (IMAO.B)
[20] = Table 2, rats, 4 hours, read-out: % MAO inhibition effect after n hour(s), PEA (IMAO.B)
[21] = Table 2, rats, 8 hours, read-out: % MAO inhibition effect after n hour(s), PEA (IMAO.B)
[22] = Table 2, rats, 24 hours, read-out: % MAO inhibition effect after n hour(s), PEA (IMAO.B)
[23] = Table 2, rats, 48 hours, read-out: % MAO inhibition effect after n hour(s), PEA (IMAO.B)
[24] = Table 2, rats, 72 hours, read-out: % MAO inhibition effect after n hour(s), PEA (IMAO.B)
[25] = Table 2, 5 mg/kg p.o., rats, 1 hour, read-out: % MAO inhibition effect after n hour(s), 5-HT (IMAO.A)
[26] = Table 2, 5 mg/kg p.o., rats, 2 hours, read-out: % MAO inhibition effect after n hour(s), 5-HT (IMAO.A)
[27] = Table 2, 5 mg/kg p.o., rats, 4 hours, read-out: % MAO inhibition effect after n hour(s), 5-HT (IMAO.A)
[28] = Table 2, 5 mg/kg p.o., rats, 8 hours, read-out: % MAO inhibition effect after n hour(s), 5-HT (IMAO.A)
[29] = Table 2, 5 mg/kg p.o., rats, 24 hours, read-out: % MAO inhibition effect after n hour(s), 5-HT (IMAO.A)
[30] = Table 2, 5 mg/kg p.o., rats, 48 hours, read-out: % MAO inhibition effect after n hour(s), 5-HT (IMAO.A)
[31] = Table 2, 5 mg/kg p.o., rats, 72 hours, read-out: % MAO inhibition effect after n hour(s), 5-HT (IMAO.A)
[32] = rats, 2 hours, read-out: % MAO inhibition effect after n hour(s), 5-HT
[33] = rats, 8 hours, read-out: % MAO inhibition effect after n hour(s), 5-HT
[34] = rats, 24 hours, read-out: % MAO inhibition effect after n hour(s), 5-HT

Structure (SMILES)	IC50 [1] [nM]	IC50 [2] [nM]	inhibition at 5 mg/kg [3, 6] [%]	inhibition at 5 mg/kg [3, 7] [%]	inhibition at 5 mg/kg [3, 8] [%]	inhibition at 5 mg/kg [3, 9] [%]	inhibition at 5 mg/kg [3, 10] [%]	inhibition at 5 mg/kg [3, 11] [%]	inhibition at 5 mg/kg [4, 12] [%]	inhibition at 5 mg/kg [4, 13] [%]	inhibition at 5 mg/kg [4, 14] [%]	inhibition at 5 mg/kg [4, 15] [%]	inhibition at 5 mg/kg [4, 16] [%]	inhibition at 5 mg/kg [4, 17] [%]	LD50 ([5]; Table 3) [mg/kg]	inhibition at 5 mg/kg [3, 18] [%]	inhibition at 5 mg/kg [3, 19] [%]	inhibition at 5 mg/kg [3, 20] [%]	inhibition at 5 mg/kg [3, 21] [%]	inhibition at 5 mg/kg [3, 22] [%]	other results
O=C1OC(CO)CN1c1ccc(OCc2cccc(Cl)c2)cc1 (racemic) [Racemic of (Ia), reference compound]	20	600	79	78	79	68	47	1	21	18	20	9	0	2	> 1000	–	–	–	–	–	–
CNCC1CN(c2ccc(OCc3cccc(Cl)c3)cc2)C(=O)O1 (racemic) [Racemic of (Ib), reference compound]	34	14000	–	–	–	–	–	–	–	–	–	–	–	–	–	84	85	78	67	31	inhibition at 5 mg/kg [3, 23]: 29%; inhibition at 5 mg/kg [3, 24]: 21%; inhibition at 5 mg/kg [4, 25]: 7%; inhibition at 5 mg/kg [4, 26]: 8%; inhibition at 5 mg/kg [4, 27]: 10%; inhibition at 5 mg/kg [4, 28]: 8%; inhibition at 5 mg/kg [4, 29]: 1%; inhibition at 5 mg/kg [4, 30]: 1%; inhibition at 5 mg/kg [4, 31]: 1%; LD50 ([5]; Table 2): > 1000 mg/kg
CNC[C@@H]1CN(c2ccc(OCc3cccc(Cl)c3)cc2)C(=O)O1 [(Ib), [R(+)] 5-N-methylaminomethyl 3-p-(meta-chlorobenzyloxy)phenyl oxazolidine-2-one]	30	50000	–	–	–	–	–	–	–	–	–	–	–	–	–	74	77	71	61	6	specificity and reversibility [3]: much greater specificity and reversibility; level of activity [3]: level of activity similar to that of its racemic; inhibition at 5 mg/kg [3, 23]: 5%; inhibition at 5 mg/kg [3, 24]: 0%; inhibition at 5 mg/kg [4, 25]: -1%; inhibition at 5 mg/kg [4, 26]: 0%; inhibition at 5 mg/kg [4, 27]: 0%; inhibition at 5 mg/kg [4, 28]: 1%; inhibition at 5 mg/kg [4, 29]: -1%; inhibition at 5 mg/kg [4, 30]: -3%; inhibition at 5 mg/kg [4, 31]: 3%; LD50 ([5]; Table 2): > 1000 mg/kg; active doses relative to lethal 50 doses (mice): activities at doses much less than the lethal 50 doses
O=C1O[C@H](CO)CN1c1ccc(OCc2cccc(Cl)c2)cc1 [(Ia), [S(+)] 5-hydroxymethyl 3-p-(meta-chlorobenzyloxy)phenyl oxazolidine-2-one]	85	9000	47	47	43	30	5	-5	3	3	2	3	0	-2	> 1000	–	–	–	–	–	specificity and reversibility [3]: much greater specificity; level of activity [3]: activity increases with the dose administered; inhibition at 10 mg/kg [3, 8]: 66%; inhibition at 10 mg/kg [3, 10]: 36%; inhibition at 10 mg/kg [3, 11]: 6%; inhibition at 20 mg/kg [3, 8]: 77%; inhibition at 20 mg/kg [3, 10]: 50%; inhibition at 20 mg/kg [3, 11]: 5%; inhibition at 10 mg/kg [4, 32]: 5%; inhibition at 10 mg/kg [4, 33]: 1%; inhibition at 10 mg/kg [4, 34]: 0%; inhibition at 20 mg/kg [4, 32]: 7%; inhibition at 20 mg/kg [4, 33]: 3%; inhibition at 20 mg/kg [4, 34]: 0%; active doses relative to lethal 50 doses (mice): activities at doses much less than the lethal 50 doses
